# Assay results from PubChem BioAssay (NCI).
#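 Dose response: 5 concentrations. Exposure: 48 h. Format: 96-well plates. Endpoint: linear interpolation; highest concentration if not reached. TGI: concentration producing complete growth inhibition.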
# Columns and labels:
# Assay in all cases: DTP human tumour cell line panel, 48 h
# NCI-H23 lung = system: NCI-H23 lung
# SNB-78 CNS = system: SNB-78 CNS
# HCT-15 colon = system: HCT-15 colon
# OVCAR-5 ovarian = system: OVCAR-5 ovarian
# DMS 273 small cell lung = system: DMS 273 small cell lung
# IGROV1 ovarian = system: IGROV1 ovarian
# M14 melanoma = system: M14 melanoma
# U251 CNS = system: U251 CNS
# SNB-19 CNS = system: SNB-19 CNS
# SK-MEL-5 melanoma = system: SK-MEL-5 melanoma
# UO-31 renal = system: UO-31 renal
# UACC-62 melanoma = system: UACC-62 melanoma
# OVCAR-3 ovarian = system: OVCAR-3 ovarian
# DLD-1 colon = system: DLD-1 colon
# SW-620 colon = system: SW-620 colon
# UACC-257 melanoma = system: UACC-257 melanoma
# SF-539 CNS = system: SF-539 CNS
# A498 renal = system: A498 renal
# KM20L2 colon = system: KM20L2 colon
# SF-295 CNS = system: SF-295 CNS
# OVCAR-8 ovarian = system: OVCAR-8 ovarian
# SR leukemia = system: SR leukemia
# KM12 colon = system: KM12 colon
# SK-MEL-28 melanoma = system: SK-MEL-28 melanoma
# MALME-3M melanoma = system: MALME-3M melanoma
# CCRF-CEM leukemia = system: CCRF-CEM leukemia
# RPMI-8226 leukemia = system: RPMI-8226 leukemia
# A549 NSCLC = system: A549 NSCLC
# LXFL 529 NSCLC = system: LXFL 529 NSCLC
# TK-10 renal = system: TK-10 renal
# COLO 205 colon = system: COLO 205 colon
# DMS 114 small cell lung = system: DMS 114 small cell lung
# SN12C renal = system: SN12C renal
# OVCAR-4 ovarian = system: OVCAR-4 ovarian
# HOP-92 NSCLC = system: HOP-92 NSCLC
# SK-OV-3 ovarian = system: SK-OV-3 ovarian
# SK-MEL-2 melanoma = system: SK-MEL-2 melanoma
# HL-60(TB) leukemia = system: HL-60(TB) leukemia
# CAKI-1 renal = system: CAKI-1 renal
# HT29 colon = system: HT29 colon
# SF-268 CNS = system: SF-268 CNS
# NCI-H522 lung = system: NCI-H522 lung
# 786-0 renal = system: 786-0 renal
# HOP-62 NSCLC = system: HOP-62 NSCLC
# M19-MEL melanoma = system: M19-MEL melanoma
# NCI-H460 lung = system: NCI-H460 lung
# HCT-116 colon = system: HCT-116 colon
# NCI-H226 lung = system: NCI-H226 lung
# SNB-75 CNS = system: SNB-75 CNS
# LOX IMVI melanoma = system: LOX IMVI melanoma
# EKVX NSCLC = system: EKVX NSCLC
# ACHN renal = system: ACHN renal
# RXF 393 renal = system: RXF 393 renal
# HS 578T breast = system: HS 578T breast
# MDA-MB-231 breast = system: MDA-MB-231 breast
# HCC-2998 colon = system: HCC-2998 colon
# MDA-MB-435 = system: MDA-MB-435
# MOLT-4 leukemia = system: MOLT-4 leukemia
# NCI/ADR-RES ovarian = system: NCI/ADR-RES ovarian
# BT-549 breast = system: BT-549 breast
# K-562 leukemia = system: K-562 leukemia
# MCF7 breast = system: MCF7 breast
# DU-145 prostate = system: DU-145 prostate
# T-47D breast = system: T-47D breast
# MDA-N = system: MDA-N
# PC-3 prostate = system: PC-3 prostate
structure (smiles),measurement,setting,value
CC(C)C(Sc1nc(-c2ccccc2)c(-c2ccccc2)[nH]1)C(=O)N/N=C/c1ccc(Cl)cc1 (stereo unspecified),TGI,NCI-H23 lung,52.8 µM
same,TGI,SNB-78 CNS,> 100 µM
same,TGI,HCT-15 colon,59.3 µM
same,TGI,OVCAR-5 ovarian,52.4 µM
same,TGI,DMS 273 small cell lung,39.6 µM
same,TGI,IGROV1 ovarian,48.8 µM
same,TGI,M14 melanoma,33.7 µM
same,TGI,U251 CNS,39.5 µM
same,TGI,SNB-19 CNS,> 100 µM
same,TGI,SK-MEL-5 melanoma,30.5 µM
same,TGI,UO-31 renal,47.8 µM
same,TGI,UACC-62 melanoma,40.1 µM
same,TGI,OVCAR-3 ovarian,35.5 µM
same,TGI,DLD-1 colon,> 100 µM
same,TGI,SW-620 colon,68.2 µM
same,TGI,UACC-257 melanoma,53.7 µM
same,TGI,SF-539 CNS,36.4 µM
same,TGI,A498 renal,43.2 µM
same,TGI,KM20L2 colon,46.2 µM
same,TGI,SF-295 CNS,47.5 µM
same,TGI,OVCAR-8 ovarian,53.6 µM
same,TGI,SR leukemia,> 100 µM
same,TGI,KM12 colon,44.7 µM
same,TGI,SK-MEL-28 melanoma,45.2 µM
same,TGI,MALME-3M melanoma,47.7 µM
same,TGI,CCRF-CEM leukemia,85.4 µM
same,TGI,RPMI-8226 leukemia,65.4 µM
same,TGI,A549 NSCLC,82.3 µM
same,TGI,LXFL 529 NSCLC,82.8 µM
same,TGI,TK-10 renal,> 100 µM
same,TGI,COLO 205 colon,35.5 µM
same,TGI,DMS 114 small cell lung,71.5 µM
same,TGI,SN12C renal,36.3 µM
same,TGI,OVCAR-4 ovarian,98.4 µM
same,TGI,HOP-92 NSCLC,54.2 µM
same,TGI,SK-OV-3 ovarian,67 µM
same,TGI,SK-MEL-2 melanoma,36.5 µM
same,TGI,HL-60(TB) leukemia,56.6 µM
same,TGI,CAKI-1 renal,69.9 µM
same,TGI,HT29 colon,36.9 µM
same,TGI,SF-268 CNS,57.6 µM
same,TGI,NCI-H522 lung,41.7 µM
same,TGI,786-0 renal,40.8 µM
same,TGI,HOP-62 NSCLC,42.5 µM
same,TGI,M19-MEL melanoma,34.6 µM
same,TGI,NCI-H460 lung,52.8 µM
same,TGI,HCT-116 colon,29.4 µM
same,TGI,NCI-H226 lung,41.5 µM
same,TGI,SNB-75 CNS,67.6 µM
same,TGI,LOX IMVI melanoma,28.9 µM
same,TGI,EKVX NSCLC,67.6 µM
same,TGI,ACHN renal,> 100 µM
CC(C)(C)CNCCO,TGI,NCI-H23 lung,> 100 µM
same,TGI,HCT-15 colon,> 100 µM
same,TGI,OVCAR-5 ovarian,> 100 µM
same,TGI,IGROV1 ovarian,> 100 µM
same,TGI,M14 melanoma,> 100 µM
same,TGI,U251 CNS,> 100 µM
same,TGI,SNB-19 CNS,> 100 µM
same,TGI,SK-MEL-5 melanoma,> 100 µM
same,TGI,UO-31 renal,> 100 µM
same,TGI,UACC-62 melanoma,> 100 µM
same,TGI,RXF 393 renal,> 100 µM
same,TGI,OVCAR-3 ovarian,> 100 µM
same,TGI,SW-620 colon,> 100 µM
same,TGI,UACC-257 melanoma,> 100 µM
same,TGI,SF-539 CNS,> 100 µM
same,TGI,A498 renal,> 100 µM
same,TGI,SF-295 CNS,> 100 µM
same,TGI,OVCAR-8 ovarian,> 100 µM
same,TGI,HS 578T breast,> 100 µM
same,TGI,SR leukemia,> 100 µM
same,TGI,MDA-MB-231 breast,> 100 µM
same,TGI,HCC-2998 colon,> 100 µM
same,TGI,KM12 colon,> 100 µM
same,TGI,SK-MEL-28 melanoma,> 100 µM
same,TGI,MALME-3M melanoma,> 100 µM
same,TGI,CCRF-CEM leukemia,> 100 µM
same,TGI,RPMI-8226 leukemia,> 100 µM
same,TGI,A549 NSCLC,> 100 µM
same,TGI,MDA-MB-435,> 100 µM
same,TGI,TK-10 renal,> 100 µM
same,TGI,COLO 205 colon,> 100 µM
same,TGI,SN12C renal,> 100 µM
same,TGI,OVCAR-4 ovarian,> 100 µM
same,TGI,HOP-92 NSCLC,> 100 µM
same,TGI,SK-OV-3 ovarian,> 100 µM
same,TGI,MOLT-4 leukemia,> 45.7 µM
same,TGI,NCI/ADR-RES ovarian,> 100 µM
same,TGI,BT-549 breast,> 100 µM
same,TGI,K-562 leukemia,> 100 µM
same,TGI,MCF7 breast,> 100 µM
same,TGI,SK-MEL-2 melanoma,> 100 µM
same,TGI,HL-60(TB) leukemia,> 100 µM
same,TGI,CAKI-1 renal,> 100 µM
same,TGI,HT29 colon,> 100 µM
same,TGI,DU-145 prostate,> 100 µM
same,TGI,SF-268 CNS,> 100 µM
same,TGI,NCI-H522 lung,> 100 µM
same,TGI,786-0 renal,> 100 µM
same,TGI,HOP-62 NSCLC,> 100 µM
same,TGI,NCI-H460 lung,> 100 µM
same,TGI,HCT-116 colon,> 100 µM
same,TGI,NCI-H226 lung,> 100 µM
same,TGI,SNB-75 CNS,> 100 µM
same,TGI,T-47D breast,> 100 µM
same,TGI,MDA-N,> 100 µM
same,TGI,LOX IMVI melanoma,> 100 µM
same,TGI,EKVX NSCLC,> 100 µM
same,TGI,PC-3 prostate,> 100 µM
same,TGI,ACHN renal,> 100 µM
